The subject of data set [1] is human embryonic stem cells (hESCs; H9). In words: Induction of late primitive streak from hESCs with CHIR. It is filed as cell-based. Particulars: CHIR 8 μM over 4 days. The method, then:
(§1) hPSCs grown on Geltrex were washed once with PBS (Life Technologies, #10010-049) and dissociated into single cells with Accutase ([…] Technologies, #07920). Cells were then plated at a density of 2-2.4×10^4 (H9) or 1-1.4×10^4 (HDF, 2C) cells/cm^2 onto 24-well tissue culture plates (TPP, #92024) coated with 1% Geltrex in ReproFF2 supplemented with the ROCK inhibitor Y27632 (10 μM) (TOCRIS, #1254) and FGF2 (10 ng/ml). After 72 hours, cells (50% confluent) were briefly washed in PBS and then cultured in basic differentiation medium consisting of Advanced RPMI 1640 (Life Technologies, #12633-020) and 1X L-GlutaMAX (Life Technologies, #35050-061) supplemented with CHIR99021 (8-10 μM) (TOCRIS, #4423) for 4 days to induce late primitive streak cells Noggin (5 ng/ml) was also used for hiPSC differentiation in addition to CHIR (10 μM). To induce posterior intermediate mesoderm, cells were then cultured in Advanced RPMI+1X L-GlutaMAX+activin (10 ng/mL) (R&D, #338-AC-050) for 3 days. For induction of nephron progenitor cells, the media was then changed to Advanced RPMI+1X L-GlutaMAX+FGF9 (10 ng/ml) (R&D, #273-F9-025/CF) for 7 days. CHIR (3 μM) was added to the media from day 9 to 11 of differentiation to induce renal vesicles. On day 14, cells were switched to the basic differentiation medium and cultured for an additional 7 to 14 days (total of 21 to 28 days). […]

Another data set concerns NPCs. Description: Induction of pre-tubular aggregates and renal vesicles from nephron progenitor cells. The data set is classed as cell-based, human. The method, then:
(§2) hPSCs grown on Geltrex were washed once with PBS (Life Technologies, #10010-049) and dissociated into single cells with Accutase ([…] Technologies, #07920). Cells were then plated at a density of 2-2.4×10^4 (H9) or 1-1.4×10^4 (HDF, 2C) cells/cm^2 onto 24-well tissue culture plates (TPP, #92024) coated with 1% Geltrex in ReproFF2 supplemented with the ROCK inhibitor Y27632 (10 μM) (TOCRIS, #1254) and FGF2 (10 ng/ml). After 72 hours, cells (50% confluent) were briefly washed in PBS and then cultured in basic differentiation medium consisting of Advanced RPMI 1640 (Life Technologies, #12633-020) and 1X L-GlutaMAX (Life Technologies, #35050-061) supplemented with CHIR99021 (8-10 μM) (TOCRIS, #4423) for 4 days to induce late primitive streak cells Noggin (5 ng/ml) was also used for hiPSC differentiation in addition to CHIR (10 μM). To induce posterior intermediate mesoderm, cells were then cultured in Advanced RPMI+1X L-GlutaMAX+activin (10 ng/mL) (R&D, #338-AC-050) for 3 days. For induction of nephron progenitor cells, the media was then changed to Advanced RPMI+1X L-GlutaMAX+FGF9 (10 ng/ml) (R&D, #273-F9-025/CF) for 7 days. CHIR (3 μM) was added to the media from day 9 to 11 of differentiation to induce renal vesicles. On day 14, cells were switched to the basic differentiation medium and cultured for an additional 7 to 14 days (total of 21 to 28 days). The medium was replaced every 2 or 3 days. A variety of growth factors and small molecules were tested for differentiation.
hPSCs on day 9 of differentiation, which represents metanephric mesenchyme cells, were dissociated with Accutase and resuspended in the basic differentiation medium supplemented with CHIR (3 μM) and FGF9 (10 ng/mL), and placed in 96-well, round bottom, ultra-low attachment plates (Corning, #7007) at 1×10^5 cells per well. The plates were centrifuged at 1500 rpm for 15 seconds, and the cells then cultured at 37° C., 5% CO2 for 2 days. The medium was then changed to the basic differentiation medium supplemented with FGF9 10 ng/mL and cultured for 3 more days. […]

The test system of the next data set is NPCs in 3D culture. Description: Growth factor and small molecule screening in 3D culture (LTL+ tubules). It is filed as cell-based, human. Particulars: added in 3D culture from day 10. How it is done: FIG. 10. Spontaneous differentiation of SIX2+ cells into nephrons and growth factor screening in 3D culture. (a) Staining with PAX8 and LHX1 in hESCs on day 10 of the differentiation. hESCs were differentiated with CHIR 8 µM for 4 days, activn 10 ng/ml for 3 days, and FGF9 10 ng/ml for 3 days. […] Scale bar: 50 μm. (b) Brighfield imaging for hESCs on day 10 and 21 of the differentiation. FGF9 was withdrawn on day 10, and cells were cultured in the basic medium by day 21. Scale bars: 50 μm. (c) Brightfield and immunocytochemistry for LTL and NPHS1 in hESCs on day 28 of the differentiation. Scale bar: 50 μm. (d) The protocol for growth factor screening. Cells were replated to 3D culture on day 10, and the listed growth factors and small molecules were tested. (e) The number of LTL+ tubules in the organoids. […] (f) Brightfield imaging of 3D co-culture with an ureteric bud cell sphere. Scale bar: 100 μm. (g) Whole-mountstaining for LTL in the organoids on day 16. Scale bar: 100 μm. (h) Immunohistochemistry of the organoids on day 16. Scale bars: 50 μm. LTL: lotus tetragonolobus lectin. NPHS1: Nephrin.
To test whether the formation of epithelial structures could be facilitated by 3D culture conditions, on day 10, at the time of FGF9 withdrawal, the Inventors replated NPCs in ultra-low-attachment, round-bottom 96-well plates and cultured them for 1 week. NPCs formed 3D spherical aggregates, one per 96-well, in suspension culture.

In data set [2] the test system is hPSC-derived renal vesicles. Description: Kidney development analysis (Notch inhibition) in kidney organoids. Particulars: DAPT 10 μM from day 14 to 21, 2D and 3D culture. It is filed as cell-based, human. How it is done: FIG. 6. Modeling kidney development and injury in kidney organoids. (a) Schematic for kidney development analysis and nephrotoxicity assay. (b) Representative images of immunohistochemistry in structures derived from hESCs treated with DAPT 10 μM from day 14 to 21. n=4. Notch inhibition suppressed proximal tubule formation. Scale bars: 50 μm. […] Scale bars: 50 μm. […] (d) A low magnification image of gentamicin-treated organoids. Scale bar: 100 μm. CDH1: Cadherin-1 (E-cadherin). PODXL: Podocalyxin-like (Podocalyxin). LTL: lotus tetragonolobus lectin. KIM-1: kidney injury molecule-1. (e) Real-time quantitative PCR of KIM-1 in kidney organoids treated with gentamicin at indicated doses. Data is expressed as mean+/−SEM (n=10). […] Scale bars: 50 μm.
FIG. 12. Kidney development analysis. (a) DAPT was used to suppress Notch signaling from day 14 to 21. (b) CDH1, PODXL and LTL expression on day 21 in cells derived from hESCs in 2D culture. Scale bars: 50 (c) Percentage of LTL+ nephron structures in control and DAPT-treated on day 21. The nephron number was counted as CDH1+ tubules from 10 fields (×20 magnification) of each sample (n=2). CDH1: Cadherin-1 (E-cadherin). PODXL: Podocalyxin-like (Podocalyxin). […]

Another data set concerns ARPKD-iPS organoids. In words: ARPKD organoid cyst formation in 3D culture. It is filed as cell-based, human. Particulars: forskolin treatment, 96-well plates, 24 in 24 organoids. An excerpt: FIG. 26. Autosomal recessive polycystic kidney disease (ARPKD), organoid in 3D culture. This was done in 96-well plates. Cyst formation was 100% (24 in 24 organoids) in ARPKD-iPS with forskolin treatment. PKHD1 mutants were generated with CRISPR. The cystic phenotype appear from very early stage (day 22˜), meaning high-scale drug screening can be done, since media change will be much less frequent.

Data set [3] concerns 3D hESC-derived kidney organoids. Description: Nephrotoxicity assay in 3D kidney organoids. The data set is classed as cell-based, human.
Method: Organoids were then fixed with 4% paraformaldehyde (Electron Microscopy Sciences, #RT15710) for 20 minutes for both whole-mount and frozen section immunohistochemistry.
3D kidney organoids were fixed with 4% paraformaldehyde in PBS for 20 minutes at RT in a 96-well plate, then washed three times in PBS. The organoids were then incubated in blocking buffer (0.3% Triton X-100 and 5% normal donkey serum) for 1 hour at RT, then washed three times in PBS. The organoids were incubated with primary antibodies in antibody dilution buffer (0.3% Triton X-100 and 1% BSA in PBS) overnight at 4° C. The organoids were then washed with PBS three times for 1 hour each, with the third washing performed overnight at 4° C. For immunostaining with biotinylated LTL (Vector Labs, #B-1325), a Streptavidin/Biotin Blocking Kit (Vector Labs, #SP-2002) was used according to the manufacturer's protocol. The organoids were incubated with secondary antibodies in antibody dilution buffer for 1 hour at RT, then washed with PBS three times for 30 minutes each. Nuclei were counterstained with DAPI for more than 30 minutes. […]
Total RNA was purified from cells using the RNAeasy MiniKit (Qiagen). […] Quantitative RT-PCR was performed using the iQ5 Multicolor Real-Time PCR Detection System (Bio-Rad). […] Values were calculated by the delta delta CT method. […]
The next data set deals with H9 hESCs. In words: Differentiation of hESCs into posterior intermediate mesoderm. The data set is classed as cell-based, human. Particulars: added to CHIR in the first step, hESCs. The method, then:
as §2
PAX2 and LHX1 were not expressed (FIG. 1f), confirming that activin treatment of late primitive streak cells produced posterior and not anterior IM cells.
As the posterior primitive streak is induced by a BMP4 signal gradient, the Inventors hypothesized that CHIR treatment of HDF-α hiPSCs might induce endogenous BMP4 production that promotes differentiation into the posterior primitive streak and subsequently lateral plate mesoderm. […] Optimizing the protocol for individual cell lines based on their endogenous BMP4 production maximized the efficiency of generating posterior IM.

Another data set deals with HDF-α hiPSCs. Description: Differentiation of hiPSCs into posterior intermediate mesoderm. It is filed as cell-based, human. Conditions: noggin 5 ng/mL with CHIR in the first step of differentiation. The method, then: as §1

From the text for podocytes: Modeling glomerular diseases. The Inventors used puromycin and adriamycin which is known to induce FSGS (focal-segmental glomerulosclerosis).

For `Cc1c[nH]c(-c2cnc(NCCNc3ccc(C#N)cn3)nc2-c2ccc(Cl)cc2Cl)n1` [CHIR, CHIR99021], the “induction of T+TBX6+ primitive streak cells” value in [1] is “robustly induced and maintained a population of T+TBX6+ primitive streak cells”. For the same molecule, in the data set on NPCs (3D culture from day 9, studied on day 14, versus basic medium (ARPMI)), the “size of the organoids” value is listed as “increased the size of the organoids”. In the data set on NPCs (CHIR 3 μM for 2 days from day 9 with FGF9 days 7-14, 2D culture), the “number of cells that downregulated SIX2 and co-expressed PAX8 and LHX1” value is recorded as “markedly increased”. Further, the “PAX8+LHX1+ differentiated cells by flow cytometry” value with NPCs (CHIR 3 μM for 2 days from day 9 with FGF9 days 7-14, 2D culture, day 14) is approximately 75.9%. In addition, the “number of LTL+ tubules in the organoids” value with NPCs in 3D culture is listed as “did not significantly increase the number of LTL+ tubules”.
In the case of `C[C@H](NC(=O)Cc1cc(F)cc(F)c1)C(=O)N[C@H](C(=O)OC(C)(C)C)c1ccccc1` [DAPT], in data set [2], the proximal tubule formation result is on record as “marked suppression of proximal tubule formation”.
Turning to `COc1cccc2c1C(=O)c1c(O)c3c(c(O)c1C2=O)C[C@@](O)(C(=O)CO)C[C@@H]3O[C@H]1C[C@H](N)[C@H](O)[C@H](C)O1` [adriamycin], in the data set on podocytes, the structures of podocytes result is “the structures of podocytes were disrupted”.
With `C=C[C@@]1(C)CC(=O)[C@]2(O)[C@@]3(C)[C@@H](O)CCC(C)(C)[C@@H]3[C@H](O)[C@H](OC(C)=O)[C@@]2(C)O1` [forskolin], the cyst formation with ARPKD-iPS organoids is 100%.
As for `COc1ccc(C[C@H](N)C(=O)N[C@H]2[C@@H](O)[C@H](n3cnc4c(N(C)C)ncnc43)O[C@@H]2CO)cc1` [puromycin], in the data set with podocytes, the structures of podocytes entry was “the structures of podocytes were disrupted”.
Consider gentamicin, for which, in data set [3] (gentamicin 5 mg/mL for 48 hours after day 21), the “KIM-1 expression by immunostaining (whole mount and frozen sections)” value is on record as “clear KIM-1 expression at the luminal surface of LTL+tubules but not in E-cadherin+ tubules”. For the same molecule, the “KIM-1 by real-time PCR” value in data set [3] (gentamicin 5×10^−4, 5×10^−2, or 5 mg/mL for 48 hours) was “KIM-1 upregulation by gentamicin in a dose-dependent manner”.

B1: noggin: a BMP4 signaling antagonist (protein, UniProt Q13253 28-232, looked up)
Noggin: QHYLHIRPAPSDNLPLVDLIEHPDPIFDPKEKDLNETLLRSLLGGHYDPGFMATSPPEDRPGGGGGAAGGAEDLAELDQLLRQRPSGAMPSEIKGLEFSEGLAQGKKQRLSKKLRRKLQMWLWSQTFCPVLYAWNDLGSRFWPRYVKVGSCFSKRSCSVPEGMVCKPSKSVHLTVLRWRCQRRGGQRCGWIPIQYPIISECKCSC
Consider B1, for which, in the data set with H9 hESCs, the “WT1 expression on day 7” value is on record as “significantly suppressed WT1 expression on day 7”. Besides, in the data set with HDF-α hiPSCs, the “T, TBX6 and FOXF1 expression on day 4” value is “expressed T and TBX6 but not FOXF1 on day 4”.

For the origin of these results see patent US20180258404A1, “METHODS OF GENERATING NEPHRONS FROM HUMAN PLURIPOTENT STEM CELLS” (THE BRIGHAM AND WOMEN'S HOSPITAL, INC., priority 2015, published 2018).
